Data on nine compounds can be found in paper PMC11562385 (RSC Chemical Biology, 2024).

In one data set the target is T1, PD1:PDL1 interaction (Homo sapiens, UniProt Q15116).
T1 construct: purchased BPS Bioscience 72005
The data set can be described thus: PD1/PDL1 immunoblocking ELISA (BPS Bioscience kit cat # 72005). The class given is binding. The protocol:
Original loops with Phe/Trp and their Gly-derived analogs. Experimental EC50 values from inhibitory dose–response curves. Error bars indicate the mean ± SD, (n = 3). […]
SDS -Pages, buffers, and stain were purchased from Fisher
8. Immunoblocking ELISA Assay
Peptide inhibitor stock solutions were prepared in the concentration range of approximately 1-5 mM in DMSO. […]
plate was then washed and blocked with blocking buffer for 1 h at room temperature. Inhibitor solutions (ranging from 0.01 to 100 μM) and a blank solution (DMSO/PBS buffer) were added to designated wells. To initiate the […]
inhibitor solutions. After a 2 h incubation at room temperature, the plate was washed and blocked again for 10 min. Streptavidin-HRP (diluted at 1 : 1000) was added and incubated for 1 h at room temperature with gentle shaking. The plate was washed and blocked once more for 10 min. ELISA ECL substrate was added, and the resulting chemoluminescence was immediately measured in a luminometer (FLUOstar OPTIMA, BMG Labtech).
The luminescence value of the blank was subtracted from all readings according to the manufacturer's
In general terms: In an ELISA, binding on a coated surface is turned into a signal by an enzyme label.

Data set [1] is described as follows: Variable-temperature CD melting curves (CD-melts at 228±2 nm and 202±2 nm), individual and global two-state fits. In kind it is physicochemical. Here is the method:
Recently, our laboratory brought forward a novel synthetic technology for the synthesis of acyclic β-hairpins with long loops. […] To compare hairpins’ stability, both regular (R) and bulged (B) scaffolds were crafted around a flexible 10-residue model loop (G4K2G4) and analyzed by CD (circular dichroism) spectroscopy (Fig. 2(A), see ESI, ^† Table S5). The […] structure of these model scaffolds 1avs.2a in solution were recorded in the far-UV CD spectra. […] The CD-exciton intensity was therefore used as a global probe to determine the %-folding of ADAPTins and to obtain melting curves corresponding to the hairpin fraying mechanism upon a gradual increase of temperature (0 to 95 °C).[68] […] In addition, NMR (nuclear magnetic resonance) chemical shifts were measured to determine variations in backbone […] structures (Fig. 2(B)). Secondary chemical shift deviations (CSDs) were calculated against random coil values[69] for both ADAPTin scaffolds 1vs.2 to verify that the hairpins were folded and if any variation of conformational rigidity exist within the loops. […]
Mass Spectrometer coupled to a Vanquish™ Neo UHPLC System (Thermo Scientific™). Peptide solutions for circular dichroism (CD) were prepared within a concentration range of 15-120 µM in a phosphate buffer (15 mM, […]
measured accurately using a JASCO V-670 spectrophotometer relied on the combined molar absorptivity of Trp (ε280 = 5580 M-1 .cm-1 per Trp) and Tyr (ε280 = 1280 M-1 .cm-1 per Tyr) to determine each sample's concentration.
CD spectra were recorded using a JASCO J-810 Spectropolarimeter equipped with a temperature controller module JASCO PFD-425S. Raw CD melting curves were processed in SpectraGryph, and fitting was performed in OriginPro 9.0 (Originlab Corporation, U.S.A.). NMR samples were prepared by reconstituting freeze -dried peptides (~ 1-5 mg) in mixture of water and DMSO -d6 (90:10 v/v) using 2,2-dimethyl-2-silapentane-5-sulfonate (DSS) as internal standard for chemical shifts (0 ppm), and spectra were recorded at 291 K (18 °C) unless otherwise stated. Chemical shifts ( δ) are reported in ppm. Samples for NMR experiments were prepared in a range of 3-10 mM of peptide in solution unless otherwise noted.

[2] abbreviates: ELISA, mean of three independent experiments, read-out: EC50 Value.
[3] abbreviates: xlsx sheet of the peptide, individual fit of CD-melt.

As usually defined, the EC50 is the concentration needed to bring the measured effect to its halfway point.

The structures appear in SMILES notation. Like-named read-outs stand apart in the source and are kept apart here. Square brackets hold non-standard residues; d marks the D form. Peptide text beside a SMILES is read from it. * marks the point of attachment. Methacryloyl = C=C(C)C(=O)*; Dab = NCC[C@H](N)C(=O)O; Acryloyl = C=CC(=O)*

T1 sequence (Q15116 25-167 limits assumed): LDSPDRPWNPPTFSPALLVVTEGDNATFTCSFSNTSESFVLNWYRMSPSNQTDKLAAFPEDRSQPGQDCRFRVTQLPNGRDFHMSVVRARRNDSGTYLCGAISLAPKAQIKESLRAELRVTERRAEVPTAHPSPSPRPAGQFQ

In the case of `CSCC[C@H](NC(=O)[C@H](CC(=O)O)NC(=O)[C@H](Cc1ccccc1)NC(=O)[C@H](CCCNC(=N)N)NC(=O)[C@H](Cc1ccc(O)cc1)NC(=O)[C@H](CC(=O)O)NC(=O)[C@H](CCCNC(=N)N)NC(=O)[C@H](CCCNC(=N)N)NC(=O)[C@H](Cc1c[nH]c2ccccc12)NC(=O)[C@@H](NC(=O)[C@H](Cc1c[nH]c2ccccc12)NC(=O)[C@@H](N)CCCNC(=N)N)C(C)C)C(=O)NCC(=O)N[C@@H](Cc1ccccc1)C(=O)N[C@@H](CC(=O)O)C(=O)N[C@@H](Cc1ccc(O)cc1)C(=O)N[C@@H](Cc1c[nH]c2ccccc12)C(=O)N[C@H](C(=O)N[C@@H](Cc1c[nH]c2ccccc12)C(=O)N[C@@H](CCC(=O)O)C(=O)O)C(C)C` [1d] (H-RWVWRRDYRFDMGFDYWVWE-OH), the half-maximal effective concentration (EC50) at PD1:PDL1 interaction (setting [2]) was found to be 6800 nM. In addition, the “LE (ligand efficiency)” value at PD1:PDL1 interaction (LE = -RTln(EC50)/HA, HA = non-hydrogen atoms omitting the strap (RWV•••VWE)) amounted to 0.05. Moreover, the ΔGF0 in data set [1] (CD-melt at 228±2 nm, individual two-state Gibbs-Helmholtz fit (Origin 9.0), 0-95 °C, phosphate buffer 15 mM pH 6.5 ± MeOH) turned out to be 0.010 ± 0.001 kcal/mol. In addition, the Tm in data set [1] (Table S5, individual fit, 228±2 nm) is reported as 34.9 oC. The “Hairpin %-fold 291K” value in data set [1] (Table S5, individual fit, 291 K) worked out at 48 ± 1%. In addition, the “Hairpin %-fold 310K” value in data set [1] (Table S5, individual fit, 310 K) stood at 49 ± 1%. In addition, in data set [1] (as E16), the “-TΔSF0” value is -1.08 ± 0.04 kcal/mol, the ΔCpF0 is -189 ± 2 cal.deg-1.mol-1, the ΔHF0 is 1.09 ± 0.04 kcal/mol and the ΔHm is -0.037 ± 0.07 kcal/mol. For the same compound, in data set [1] (folded fraction (χF) at 25 °C from CD-melts, (R) regular / (B) bulged fold, phosphate buffer 15 mM pH 6.5, up to 20% MeOH), the VT-CD %-fold was 49% (R). Moreover, in data set [1] (setting [3]), the “DHm, fitted value from OriginPro” value is -0.0374427 kcal/mol and the “Tm, fitted value from OriginPro” value was 303.944 K.
On to `CC[C@H](C)[C@H](NC(=O)[C@H](Cc1ccc(O)cc1)NC(=O)CNC(=O)[C@H](Cc1ccc(O)cc1)NC(=O)[C@H](CC(N)=O)NC(=O)CNC(=O)[C@H](Cc1ccc(O)cc1)NC(=O)[C@H](C)NC(=O)[C@H](CCCNC(=N)N)NC(=O)[C@H](C)NC(=O)[C@@H](NC(=O)[C@H](Cc1c[nH]c2ccccc12)NC(=O)[C@@H](N)CCCNC(=N)N)C(C)C)C(=O)N[C@@H](CC(=O)O)C(=O)N[C@H](C(=O)N[C@@H](Cc1c[nH]c2ccccc12)C(=O)N[C@@H](Cc1cnc[nH]1)C(=O)N[C@@H](Cc1c[nH]c2ccccc12)C(=O)N[C@@H](CCC(=O)O)C(=O)O)C(C)C` [2r] (H-RWVARAYGNYGYIDVWHWE-OH), for which the EC50 at PD1:PDL1 interaction (setting [2]) worked out at 170 nM.
As to `CSCC[C@H](NC(=O)[C@H](CC(=O)O)NC(=O)CNC(=O)[C@H](CCCNC(=N)N)NC(=O)[C@H](Cc1ccc(O)cc1)NC(=O)[C@H](CC(=O)O)NC(=O)[C@H](CCCNC(=N)N)NC(=O)[C@H](CCCNC(=N)N)NC(=O)[C@@H](NC(=O)[C@@H](NC(=O)[C@H](Cc1c[nH]c2ccccc12)NC(=O)[C@@H](N)CCCNC(=N)N)C(C)C)C(C)C)C(=O)NCC(=O)N[C@@H](Cc1ccccc1)C(=O)N[C@@H](CC(=O)O)C(=O)N[C@@H](Cc1ccc(O)cc1)C(=O)N[C@@H](Cc1c[nH]c2ccccc12)C(=O)N[C@H](C(=O)N[C@@H](Cc1c[nH]c2ccccc12)C(=O)N[C@@H](CCC(=O)O)C(=O)O)C(C)C` [2h] (H-RWVVRRDYRGDMGFDYWVWE-OH), the EC50 on PD1:PDL1 interaction (setting [2]) is 781 nM.
Still for that read-out and setting: then `CSCC[C@H](NC(=O)[C@H](CC(=O)O)NC(=O)[C@H](Cc1ccccc1)NC(=O)[C@H](CCCNC(=N)N)NC(=O)[C@H](Cc1ccc(O)cc1)NC(=O)[C@H](CC(=O)O)NC(=O)[C@H](CCCNC(=N)N)NC(=O)[C@H](CCCNC(=N)N)NC(=O)[C@H](C)NC(=O)[C@@H](NC(=O)[C@H](Cc1c[nH]c2ccccc12)NC(=O)[C@@H](N)CCCNC(=N)N)C(C)C)C(=O)NCC(=O)N[C@@H](Cc1ccccc1)C(=O)N[C@@H](CC(=O)O)C(=O)N[C@@H](Cc1ccc(O)cc1)C(=O)N[C@@H](Cc1c[nH]c2ccccc12)C(=O)N[C@@H](Cc1cnc[nH]1)C(=O)N[C@@H](Cc1c[nH]c2ccccc12)C(=O)N[C@@H](CCC(=O)O)C(=O)O` [2e] (H-RWVARRDYRFDMGFDYWHWE-OH), with 586 nM.
Consider `CSCC[C@H](NC(=O)[C@H](CC(=O)O)NC(=O)[C@H](Cc1ccccc1)NC(=O)[C@H](CCCNC(=N)N)NC(=O)[C@H](Cc1ccc(O)cc1)NC(=O)[C@H](CC(=O)O)NC(=O)[C@H](CCCNC(=N)N)NC(=O)[C@H](CCCNC(=N)N)NC(=O)[C@H](C)NC(=O)[C@@H](NC(=O)[C@H](Cc1c[nH]c2ccccc12)NC(=O)[C@@H](N)CCCNC(=N)N)C(C)C)C(=O)NCC(=O)N[C@@H](Cc1ccccc1)C(=O)N[C@@H](CC(N)=O)C(=O)N[C@@H](Cc1ccc(O)cc1)C(=O)N[C@@H](Cc1c[nH]c2ccccc12)C(=O)N[C@H](C(=O)N[C@@H](Cc1c[nH]c2ccccc12)C(=O)N[C@@H](CCC(=O)O)C(=O)O)C(C)C` [2k] (H-RWVARRDYRFDMGFNYWVWE-OH), for which the EC50 on PD1:PDL1 interaction (setting [2]) is 170 nM.
The same measure, in the same setting: the value for `C=C(C)C(=O)NCC[C@H](NC(=O)[C@H](CC(=O)O)NC(=O)[C@H](Cc1ccccc1)NC(=O)[C@H](CCCNC(=N)N)NC(=O)[C@H](Cc1ccc(O)cc1)NC(=O)[C@H](CC(=O)O)NC(=O)[C@H](CCCNC(=N)N)NC(=O)[C@H](CCCNC(=N)N)NC(=O)[C@H](C)NC(=O)[C@@H](NC(=O)[C@H](Cc1c[nH]c2ccccc12)NC(=O)[C@@H](N)CCCNC(=N)N)C(C)C)C(=O)NCC(=O)N[C@@H](Cc1ccccc1)C(=O)N[C@@H](CC(=O)O)C(=O)N[C@@H](Cc1ccc(O)cc1)C(=O)N[C@@H](Cc1c[nH]c2ccccc12)C(=O)N[C@H](C(=O)N[C@@H](Cc1c[nH]c2ccccc12)C(=O)N[C@@H](CCC(=O)O)C(=O)O)C(C)C` [2cd] (H-RWVARRDYRFD[Dab](Methacryloyl)GFDYWVWE-OH) was 9870 nM; that for `C=CC(=O)NCC[C@H](NC(=O)[C@H](CC(=O)O)NC(=O)[C@H](Cc1ccccc1)NC(=O)[C@H](CCCNC(=N)N)NC(=O)[C@H](Cc1ccc(O)cc1)NC(=O)[C@H](CC(=O)O)NC(=O)[C@H](CCCNC(=N)N)NC(=O)[C@H](CCCNC(=N)N)NC(=O)[C@H](C)NC(=O)[C@@H](NC(=O)[C@H](Cc1c[nH]c2ccccc12)NC(=O)[C@@H](N)CCCNC(=N)N)C(C)C)C(=O)NCC(=O)N[C@@H](Cc1ccccc1)C(=O)N[C@@H](CC(=O)O)C(=O)N[C@@H](Cc1ccc(O)cc1)C(=O)N[C@@H](Cc1c[nH]c2ccccc12)C(=O)N[C@H](C(=O)N[C@@H](Cc1c[nH]c2ccccc12)C(=O)N[C@@H](CCC(=O)O)C(=O)O)C(C)C` [2ca] (H-RWVARRDYRFD[Dab](Acryloyl)GFDYWVWE-OH) was 5220 nM.
On PD1:PDL1 interaction, `CSCC[C@H](NC(=O)CNC(=O)[C@H](CCC(=O)O)NC(=O)[C@H](CCCNC(=N)N)NC(=O)[C@H](C)NC(=O)[C@@H](NC(=O)[C@H](Cc1c[nH]c2ccccc12)NC(=O)[C@@H](N)CCCNC(=N)N)C(C)C)C(=O)N[C@@H](CC(N)=O)C(=O)N[C@H](C(=O)N[C@@H](CC(=O)O)C(=O)NCC(=O)N[C@@H](Cc1ccc(O)cc1)C(=O)N[C@@H](Cc1ccccc1)C(=O)N[C@@H](CC(=O)O)C(=O)N[C@@H](Cc1ccc(O)cc1)C(=O)N[C@@H](Cc1c[nH]c2ccccc12)C(=O)N[C@@H](Cc1cnc[nH]1)C(=O)N[C@@H](Cc1c[nH]c2ccccc12)C(=O)N[C@@H](CCC(=O)O)C(=O)O)[C@@H](C)O` [2o] (H-RWVAREGMNTDGYFDYWHWE-OH) gave an EC50 of 349 nM.
On to `CSCC[C@H](NC(=O)[C@H](CC(=O)O)NC(=O)[C@H](Cc1ccccc1)NC(=O)[C@H](CCCNC(=N)N)NC(=O)[C@H](Cc1ccc(O)cc1)NC(=O)[C@H](CC(=O)O)NC(=O)[C@H](CCCNC(=N)N)NC(=O)[C@H](CCCNC(=N)N)NC(=O)[C@H](CCCCN)NC(=O)[C@@H](NC(=O)[C@H](Cc1c[nH]c2ccccc12)NC(=O)[C@@H](N)CCCNC(=N)N)C(C)C)C(=O)NCC(=O)N[C@@H](Cc1ccccc1)C(=O)N[C@@H](CC(=O)O)C(=O)N[C@@H](Cc1ccc(O)cc1)C(=O)N[C@@H](Cc1c[nH]c2ccccc12)C(=O)N[C@H](C(=O)N[C@@H](Cc1c[nH]c2ccccc12)C(=O)N[C@@H](CCC(=O)O)C(=O)O)C(C)C` [2g] (H-RWVKRRDYRFDMGFDYWVWE-OH), for which the EC50 on PD1:PDL1 interaction (setting [2]) was determined as 78 nM.
